Values joined by “and” are separate entries in the source; they are usually repeats but may differ in a detail not shown here. Equal entries are not always repeated.
Test system: 889142-216-R-J1-PDC complex spheroid viability
Assay: Anticancer human tumor 889142-216-R-J1-PDC patient-derived bladder carcinoma cell line growth inhibition [POLQ]
Settings: for viability, T/C: stronger effect = lower value; active = viability on the fitted dose curve at most 10% of control; inactive = the rest
Method: Multicellular complex tumor spheroid response to Polymerase (POL) inhibitors (novobiocin, ART-558, RP6685) in combination with a variety of drugs and investigational agents in selected tumor cell lines
The POL inhibitors (novobiocin, ART-558, and RP6685) were evaluated both individually and in combination with standard of care and investigational anticancer small molecules within a complex spheroid model of solid tumors. . Complex spheroids include a stromal component modeled by human endothelial cells (HUVEC) and fibroblasts modeled by human mesenchymal stem cells (MSCs). The concentration ranges selected for each drug and investigational agent were based upon clinically achievable concentrations if the clinical Cmax of the agent was known.
Compounds. The drugs and investigational agents: novobiocin (NSC847541), ART-558 (NSC835418), RP-6685 (NSC848927), peposertib (NSC802822), ceralasertib (NSC780249), elimusertib (NSC800525), camonsertib (NSC841442), AZD-1390 (NSC803789), olaparib (NSC753686), talazoparib (NSC767125), rucaparib (NSC756644), sotorasib (NSC818433), MRTX-1133 (NSC836407), SN-38 (NSC673596), topotecan (NSC609699), epotoside (NSC141540), doxorubicin (NSC123127), gemcitabine (NSC613327), 5-fluorouracil (NSC19893), paclitaxel (NSC125973), vemurafenib (NSC761431), MSA-2 (NSC828583), SN-011 (NSC837082), adavosertib (NSC754352), prexasertib (NSC758257), carboplatin (NSC241240) and oxaliplatin (NSC266046), were obtained from the National Cancer Institute (NCI) Developmental Therapeutics Program Chemical Repository (21). The FDA-approved anticancer drug set is available from the Developmental Therapeutics Program at https://dtp.cancer.gov/organization/dscb/obtaining/. […] The stock solutions were prepared in dimethyl sulfoxide (DMSO, Sigma-Aldrich, St. Louis, MO, cat. D2650), except for the platinum compounds which were prepared in saline (Quality Biological, Gaithersburg, MD, cat. 114-055-101), at 800-fold the tested concentration and stored at -70 degrees C prior to their use. All drugs and investigational agents were tested over a range starting from a high concentration at or near the clinical Cmax and decreasing in half-log increments. If the clinical Cmax for an agent had not been determined, the highest concentration tested was 10 microM, except for SN-38, which was tested at a high concentration of 1 microM.
Cell Culture. All cells were maintained in an incubator at 37 degrees C and 5% CO2 with 95% humidity. The PDC lines were cultured according to standard operating procedures established by the NCI PDMR (https://pdmr.cancer.gov). Table 3 of the manuscript, lists the cell lines along with the number of the three cell types plated to form the mct-spheroids and media for tumor cell growth. After thawing, all PDC lines, except 997537-175-T-J1-PDC and 415267-285-R-J2-PDC, were cultured in Matrigel-coated flasks prepared with a working solution of 1X Ham's F-12 nutrient mix, without supplementation (Thermo Fisher Scientific, cat. 11765054), 100 U/mL penicillin-streptomycin (Thermo Fisher Scientific, cat. 15140122), and 2.5% Matrigel (Corning Inc., Corning, NY, cat. 354248) for the first three passages. The two PDC lines 997537-175-T-J1-PDC and 415267-285-R-J2-PDC were cultured on uncoated flasks. The 857933-349-R-J2-PDC line was cultured in 6C/Colon 1B media containing advanced DMEM/F-12 (Thermo Fisher Scientific, cat. 12634028), 10 mM HEPES (Thermo Fisher Scientific, cat. 15630080), 1X GlutaMAX supplement (Thermo Fisher Scientific, cat. 35050061), 0.1 mg/mL primocin (InvivoGen, San Diego, CA, cat. ant-pm-2), 10% defined fetal bovine serum, heat inactivated (HyClone Laboratories Inc., Logan, UT, cat. SH30070.03HI), 50% L-WRN conditioned media (ATCC, cat. CRL-3276), 1.25 mM N-Acetyl-L-cysteine (Sigma-Aldrich, cat. A9165), 10 mM nicotinamide (Sigma-Aldrich, cat. N0636), 1X B-27 supplement (Thermo Fisher Scientific, cat. 17504044), 1X N-2 supplement (Thermo Fisher Scientific, cat. […]

[1] = curve of first compound, second compound 0.0316 µM
[2] = curve of first compound, second compound 0.1 µM
[3] = curve of first compound, second compound 0.316 µM
[4] = curve of first compound, second compound 1 µM
[5] = curve of first compound, second compound 3.16 µM
[6] = curve of first compound, second compound 10 µM
[7] = second compound 0.0316 µM, first compound 0.000316 µM
[8] = second compound 0.0316 µM, first compound 0.001 µM
[9] = second compound 0.0316 µM, first compound 0.00316 µM
[10] = second compound 0.0316 µM, first compound 0.01 µM
[11] = second compound 0.0316 µM, first compound 0.0316 µM
[12] = second compound 0.0316 µM, first compound 0.1 µM
[13] = second compound 0.1 µM, first compound 0.000316 µM
[14] = second compound 0.1 µM, first compound 0.001 µM
[15] = second compound 0.1 µM, first compound 0.00316 µM
[16] = second compound 0.1 µM, first compound 0.01 µM
[17] = second compound 0.1 µM, first compound 0.0316 µM
[18] = second compound 0.1 µM, first compound 0.1 µM
[19] = second compound 0.316 µM, first compound 0.000316 µM
[20] = second compound 0.316 µM, first compound 0.001 µM
[21] = second compound 0.316 µM, first compound 0.00316 µM
[22] = second compound 0.316 µM, first compound 0.01 µM
[23] = second compound 0.316 µM, first compound 0.0316 µM
[24] = second compound 0.316 µM, first compound 0.1 µM
[25] = second compound 1 µM, first compound 0.000316 µM
[26] = second compound 1 µM, first compound 0.001 µM
[27] = second compound 1 µM, first compound 0.00316 µM
[28] = second compound 1 µM, first compound 0.01 µM
[29] = second compound 1 µM, first compound 0.0316 µM
[30] = second compound 1 µM, first compound 0.1 µM
[31] = second compound 3.16 µM, first compound 0.000316 µM
[32] = second compound 3.16 µM, first compound 0.001 µM
[33] = second compound 3.16 µM, first compound 0.00316 µM
[34] = second compound 3.16 µM, first compound 0.01 µM
[35] = second compound 3.16 µM, first compound 0.0316 µM
[36] = second compound 3.16 µM, first compound 0.1 µM
[37] = second compound 10 µM, first compound 0.000316 µM
[38] = second compound 10 µM, first compound 0.001 µM
[39] = second compound 10 µM, first compound 0.00316 µM
[40] = second compound 10 µM, first compound 0.01 µM
[41] = second compound 10 µM, first compound 0.0316 µM
[42] = second compound 10 µM, first compound 0.1 µM
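Also: spheroids exposed to compounds for seven days.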

CC[C@@]1(O)C(=O)OCc2c1cc1n(c2=O)Cc2cc3c(CN(C)C)c(O)ccc3nc2-1 + Cc1cccc(N(C)C(=O)C2C(O)CCN2c2nc(C)cc(C(F)(F)F)c2C#N)c1
64.7 nM: IC50 [6]
> 100 nM: IC50 [1] | IC50 [2] | IC50 [3] | IC50 [4] | IC50 [5]
inactive: viability, T/C [7] 103% | viability, T/C [8] 103% | viability, T/C [9] 84.2% | viability, T/C [10] 76.5% | viability, T/C [11] 71.2% | viability, T/C [12] 56.8% | viability, T/C [13] 96% | viability, T/C [14] 115% | viability, T/C [15] 109% | viability, T/C [16] 83.7% | viability, T/C [17] 73% | viability, T/C [18] 58.9% | viability, T/C [19] 97.8% | viability, T/C [20] 111% | viability, T/C [21] 84.4% | viability, T/C [22] 91.8% | viability, T/C [23] 72.6% | viability, T/C [24] 56.6% | viability, T/C [25] 100% | viability, T/C [26] 121% | viability, T/C [27] 93.2% | viability, T/C [28] 82.2% | viability, T/C [29] 56.2% | viability, T/C [30] 61.2% | viability, T/C [31] 118% | viability, T/C [32] 103% | viability, T/C [33] 87.3% | viability, T/C [34] 84% | viability, T/C [35] 59.2% | viability, T/C [36] 57.9% | viability, T/C [37] 73.2% | viability, T/C [38] 104% | viability, T/C [39] 75% | viability, T/C [40] 68.3% | viability, T/C [41] 52.8% | viability, T/C [42] 48%

CC[C@@]1(O)C(=O)OCc2c1cc1n(c2=O)Cc2cc3c(CN(C)C)c(O)ccc3nc2-1 + Nc1ccc(C#CCN(C(=O)Cc2ncc(C(F)(F)F)cc2C(F)(F)F)c2ccc(F)cc2)nn1
> 100 nM: IC50 [1] | IC50 [2] | IC50 [3] | IC50 [4] | IC50 [5] | IC50 [6]
inactive: viability, T/C [7] 101% | viability, T/C [8] 78.3% | viability, T/C [9] 95.8% | viability, T/C [10] 87.9% | viability, T/C [11] 67.5% | viability, T/C [12] 56.1% | viability, T/C [13] 99.4% | viability, T/C [14] 89.4% | viability, T/C [15] 91.3% | viability, T/C [16] 75.2% | viability, T/C [17] 59.7% | viability, T/C [18] 52.4% | viability, T/C [19] 86.8% | viability, T/C [20] 77.6% | viability, T/C [21] 116% | viability, T/C [22] 94.8% | viability, T/C [23] 54.7% | viability, T/C [24] 59.2% | viability, T/C [25] 86.9% | viability, T/C [26] 67.1% | viability, T/C [27] 109% | viability, T/C [28] 70.7% | viability, T/C [29] 63.1% | viability, T/C [30] 55.9% | viability, T/C [31] 87.1% | viability, T/C [32] 74.4% | viability, T/C [33] 109% | viability, T/C [34] 89.4% | viability, T/C [35] 57.4% | viability, T/C [36] 52.6% | viability, T/C [37] 121% | viability, T/C [38] 135% | viability, T/C [39] 86.2% | viability, T/C [40] 72.6% | viability, T/C [41] 70.5% | viability, T/C [42] 53.4%

C=CC(=O)N1CCN(c2nc(=O)n(-c3c(C)ccnc3C(C)C)c3nc(-c4c(O)cccc4F)c(F)cc23)C(C)C1 (stereo unspecified)
> 10000 nM: IC50 (curve of compound)
inactive: viability, T/C (compound 0.0316 µM) 85.5% and 87.6% and 108% | viability, T/C (compound 0.1 µM) 90.5% and 106% and 83.7% | viability, T/C (compound 0.316 µM) 123% and 117% and 93.5% | viability, T/C (compound 1 µM) 92.1% and 126% and 116% | viability, T/C (compound 3.16 µM) 150% and 108% and 109% | viability, T/C (compound 10 µM) 106% and 105% and 97.8%

From PubChem BioAssay AID1963831 (Molecular Pharmacology Branch, DTP, NCI, 2024)
